Patent publication US12077503B2, “Substituted cyclic amides and their use as herbicides” (FMC CORPORATION, priority 2015, dated 2024)

Assays:
Format in all cases: in vivo
[1] = system: barnyardgrass (Echinochloa crus-galli); experiment: Test A preemergence
Method in brief: (§1)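 In a loam soil and sand blend, planted seeds got a preemergence directed soil spray, and young plants at the one- to two-leaf stage, 2–10 cm high, got a postemergence application; ~10 d greenhouse hold; injury rated visually, 0 = none, 100 = complete control.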

corn (Zea mays) [2] = experiment: Test A preemergence; settings: Preemergence, 1000 g ai/ha; 0 is no effect, 100 is complete control
Method in brief: as §1

[3] = system: crabgrass, large (Digitaria sanguinalis); experiment: Test A preemergence; settings: Preemergence, 1000 g ai/ha; 0 is no effect, 100 is complete control
Method in brief: as §1

[4] = system: giant foxtail (Setaria faberii); experiment: Test A preemergence
Method in brief: as §1

[5] = system: morningglory (Ipomoea spp.); experiment: Test A preemergence; settings: Preemergence, 1000 g ai/ha; 0 is no effect, 100 is complete control
Method in brief: as §1

[6] = system: pigweed (Amaranthus retroflexus); experiment: Test A preemergence
[7] = system: velvetleaf (Abutilon theophrasti); experiment: Test A preemergence; settings: Preemergence, 1000 g ai/ha; 0 is no effect, 100 is complete control
Method in brief: as §1

[8] = system: wheat (Triticum aestivum); experiment: Test A preemergence; settings: Preemergence, 1000 g ai/ha; 0 is no effect, 100 is complete control
Method in brief: as §1

[9] = system: barnyardgrass (Echinochloa crus-galli); experiment: Test A postemergence; settings: postemergence
Method in brief: as §1

corn (Zea mays) [10] = experiment: Test A postemergence; settings: postemergence
Method in brief: as §1

[11] = system: crabgrass, large (Digitaria sanguinalis); experiment: Test A postemergence; settings: 1000 g ai/ha, postemergence; 0 to 100 scale, 0 no effect, 100 complete control
Method in brief: as §1

[12] = system: giant foxtail (Setaria faberii); experiment: Test A postemergence; settings: postemergence
Method in brief: as §1

[13] = system: morningglory (Ipomoea spp.); experiment: Test A postemergence; settings: 1000 g ai/ha, postemergence; 0 to 100 scale, 0 no effect, 100 complete control
Method in brief: as §1

[14] = system: pigweed (Amaranthus retroflexus); experiment: Test A postemergence; settings: postemergence
Method in brief: as §1

[15] = system: velvetleaf (Abutilon theophrasti); experiment: Test A postemergence; settings: 1000 g ai/ha, postemergence; 0 to 100 scale, 0 no effect, 100 complete control
Method in brief: as §1

[16] = system: wheat (Triticum aestivum); experiment: Test A postemergence; settings: postemergence
Method in brief: as §1

Kochia (Kochia scoparia) [17] = experiment: Test A preemergence
Method in brief: as §1

[18] = system: ragweed (common ragweed, Ambrosia elatior); experiment: Test A preemergence
Method in brief: as §1

[19] = system: ryegrass, Italian (Italian ryegrass, Lolium multiflorum); experiment: Test A preemergence
Method in brief: as §1

[20] = system: Galium (catchweed bedstraw, Galium aparine); experiment: Test A postemergence; settings: postemergence, 0 to 100 scale (0 no effect, 100 complete control)
Method in brief: as §1

Kochia (Kochia scoparia) [21] = experiment: Test A postemergence; settings: postemergence, 0 to 100 scale (0 no effect, 100 complete control)
Method in brief: as §1

[22] = system: blackgrass (Alopecurus myosuroides); experiment: Test A postemergence; settings: postemergence, 0 to 100 scale (0 no effect, 100 complete control)
Method in brief: as §1

[23] = system: ragweed (common ragweed, Ambrosia elatior); experiment: Test A postemergence; settings: postemergence, 0 to 100 scale (0 no effect, 100 complete control)
Method in brief: as §1

[24] = system: ryegrass, Italian (Italian ryegrass, Lolium multiflorum); experiment: Test A postemergence; settings: postemergence, 0 to 100 scale (0 no effect, 100 complete control)
Method in brief: as §1

[25] = system: barnyardgrass (Echinochloa crus-galli); experiment: Test B flooded paddy test; settings: Flood, 250 g ai/ha; 0 to 100 scale where 0 is no effect and 100 is complete control; 13 to 15 d
Method in brief: (§2)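 Flooding to 3 cm over soil accompanied treatment, which consisted of adding compound to the standing water around 2-leaf plants; depth was then maintained. Visual assessment versus controls followed at 13 to 15 d (scale 0–100, 0 meaning no effect).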

[26] = system: ducksalad (Heteranthera limosa); experiment: Test B flooded paddy test; settings: Flood, 250 g ai/ha; 0 to 100 scale where 0 is no effect and 100 is complete control; 13 to 15 d
Method in brief: as §2

rice (Oryra sativa) = experiment: Test B flooded paddy test; settings: Flood, 250 g ai/ha; 0 to 100 scale where 0 is no effect and 100 is complete control; 13 to 15 d
Method in brief: as §2

[27] = system: sedge, umbrella (small-flower umbrella sedge, Cyperus difformis); experiment: Test B flooded paddy test; settings: Flood, 250 g ai/ha; 0 to 100 scale where 0 is no effect and 100 is complete control; 13 to 15 d
Method in brief: as §2

[28] = system: barnyardgrass (Echinochloa crus-galli); experiment: Test C flooded paddy test; settings: Flood; for Plant response rating (scale of 0 to 100), Barnyardgrass: 0 is no effect, 100 is complete control
Description: (§3) Plant species in the flooded paddy test consisted of rice (Oryza sativa), sedge, umbrella (small-flower umbrella sedge, Cyperus difformis), ducksalad (Heteranthera limosa), and barnyardgrass (Echinochloa crus-galli) grown to the 2-leaf stage for testing. At time of treatment, test pots were flooded to 3 cm above the soil surface, treated by application of test compounds directly to the paddy water, and then maintained at that water depth for the duration of the test. Treated plants and controls were maintained in a greenhouse for 13 to 15 d, after which time all species were compared to controls and visually evaluated. Plant response ratings, summarized in Table C, are based on a scale of 0 to 100 where 0 is no effect and 100 is complete control. A dash (-) response means no test result.

[29] = system: ducksalad (Heteranthera limosa); experiment: Test C flooded paddy test; settings: Flood; for Plant response rating (scale of 0 to 100), Ducksalad: 0 is no effect, 100 is complete control
Description: as §3

rice (Oryza sativa) = experiment: Test C flooded paddy test; settings: Flood; for Plant response rating (scale of 0 to 100), Rice: 0 is no effect, 100 is complete control
Description: as §3

[30] = system: sedge, umbrella (small-flower umbrella sedge, Cyperus difformis); experiment: Test C flooded paddy test; settings: Flood; for Plant response rating (scale of 0 to 100), Sedge, Umbrella: 0 is no effect, 100 is complete control
Description: as §3

[31] = Preemergence, 1000 g ai/ha, 0 is no effect, 100 is complete control
[32] = 1000 g ai/ha, 0 to 100 scale, 0 no effect, 100 complete control
[33] = 125 g ai/ha, Preemergence, visual injury after approximately 10 d, 0 to 100 scale where 0 is no effect and 100 is complete control
[34] = 500 g ai/ha, preemergence, 0 to 100 scale, 0 = no effect, 100 = complete control
[35] = 125 g ai/ha, visual rating after approx. 10 d
[36] = 500 g ai/ha, visual injury, approx. 10 d
[37] = 125 g ai/ha, visual rating after approx. 10 d, 0 to 100 scale (0 no effect, 100 complete control)
[38] = 500 g ai/ha, visual injury, 0 to 100 scale (0 no effect, 100 complete control), approx. 10 d
[39] = 31 g ai/ha, scale 0 to 100 (0 no effect, 100 complete control), 13 to 15 d

With Nc1c(NC(=O)C2C(=O)NCC2c2ccc(F)c(F)c2)cccc1[N+](=O)[O-] (racemic) [Compound 357] the “Barnyardgrass plant response rating (0 to 100 scale)” value [1, 31] was 0, the “Corn plant response rating (0 to 100 scale)” value (corn (Zea mays) [2]) was 0 and the “Crabgrass, Large plant response rating (0 to 100 scale)” value [3] was 0. The “Foxtail, Giant plant response rating (0 to 100 scale)” value [4, 31] was 0, the “Morningglory plant response rating (0 to 100 scale)” value [5] was 0 and the “Pigweed plant response rating (0 to 100 scale)” value [6, 31] was 0. For the same compound, the “Velvetleaf plant response rating (0 to 100 scale)” value [7] was 0, the “Wheat plant response rating (0 to 100 scale)” value [8] was 0 and the “Plant response rating, Barnyardgrass” value [9, 32] was 0. The “Plant response rating, Corn” value (corn (Zea mays) [10]; [32]) was 0, the “Plant response rating, Crabgrass, Large” value [11] was 0 and the “Plant response rating, Foxtail, Giant” value [12, 32] was 0. For the same compound, the “Plant response rating, Morningglory” value [13] was 0, the “Plant response rating, Pigweed” value [14, 32] was 0 and the “Plant response rating, Velvetleaf” value [15] was 0. For the same compound, the “Plant response rating, Wheat” value [16, 32] was 0.
In the case of CC(C)Oc1cccc(C2CN(C)C(=O)C2C(=O)Nc2ccccc2F)c1 (centres unmarked) [Compound 650], the “Plant response rating, Kochia” value (Kochia (Kochia scoparia) [17]; [33]) is reported as 30, the “Plant response rating, Kochia” value (Kochia (Kochia scoparia) [17]; [34]) is reported as 70 and the “Plant response rating, Barnyardgrass” value [1, 33] is reported as 100. For the same compound, the “Plant response rating, Barnyardgrass” value [1, 34] was 100, the “Plant response rating, Foxtail, Giant” value [4, 33] was 100 and the “Plant response rating, Foxtail, Giant” value [4, 34] was 100. For the same compound, the “Plant response rating, Pigweed” value [6, 33] was 50, the “Plant response rating, Pigweed” value [6, 34] was 90 and the “Plant response rating, Ragweed” value [18, 33] was 0. For the same compound, the “Plant response rating, Ragweed” value [18, 34] was 80, the “Plant response rating, Ryegrass, Italian” value [19, 33] was 40 and the “Plant response rating, Ryegrass, Italian” value [19, 34] was 90. The “Plant response rating, Galium” value [20, 35] was 50, the “Plant response rating, Galium” value [20, 36] was 70 and the “Plant response rating, Kochia” value (Kochia (Kochia scoparia) [21]; [35]) was 0. The “Plant response rating, Kochia” value (Kochia (Kochia scoparia) [21]; [36]) was 40, the “Plant response rating, Barnyardgrass” value [9, 37] was 90 and the “Plant response rating, Barnyardgrass” value [9, 38] was 90. For the same compound, the “Plant response rating, Blackgrass” value [22, 35] was 50, the “Plant response rating, Blackgrass” value [22, 36] was 50 and the “Plant response rating, Corn” value (corn (Zea mays) [10]; [37]) was 40. For the same compound, the “Plant response rating, Corn” value (corn (Zea mays) [10]; [38]) was 90, the “Plant response rating, Foxtail, Giant” value [12, 37] was 90 and the “Plant response rating, Foxtail, Giant” value [12, 38] was 90. For the same compound, the “Plant response rating, Pigweed” value [14, 37] was 0, the “Plant response rating, Pigweed” value [14, 38] was 0 and the “Plant response rating, Ragweed” value [23, 35] was 0. The “Plant response rating, Ragweed” value [23, 36] was 30, the “Plant response rating, Ryegrass, Italian” value [24, 35] was 60 and the “Plant response rating, Ryegrass, Italian” value [24, 36] was 70. The “Plant response rating, Wheat” value [16, 37] was 30, the “Plant response rating, Wheat” value [16, 38] was 70 and the “Plant response rating, Barnyardgrass” value [25] was 80. The “Plant response rating, Ducksalad” value [26] was 100, the “Plant response rating, Rice” value (rice (Oryra sativa)) was 0 and the “Plant response rating, Sedge, Umbrella” value [27] was 0. The “Plant response rating, Barnyardgrass” value [28, 39] was 20, the “Plant response rating (scale of 0 to 100), Barnyardgrass” value ([28]; 62 g ai/ha) was 20 and the “Plant response rating (scale of 0 to 100), Barnyardgrass” value ([28]; 125 g ai/ha) was 60. For the same compound, the “Plant response rating (scale of 0 to 100), Barnyardgrass” value ([28]; 250 g ai/ha) was 75, the “Plant response rating, Ducksalad” value [29, 39] was 60 and the “Plant response rating (scale of 0 to 100), Ducksalad” value ([29]; 62 g ai/ha) was 70. The “Plant response rating (scale of 0 to 100), Ducksalad” value ([29]; 125 g ai/ha) was 90, the “Plant response rating (scale of 0 to 100), Ducksalad” value ([29]; 250 g ai/ha) was 95 and the “Plant response rating, Rice” value (rice (Oryza sativa); [39]) was 0. The “Plant response rating (scale of 0 to 100), Rice” value (rice (Oryza sativa); 62 g ai/ha) was 0, the “Plant response rating (scale of 0 to 100), Rice” value (rice (Oryza sativa); 125 g ai/ha) was 0 and the “Plant response rating (scale of 0 to 100), Rice” value (rice (Oryza sativa); 250 g ai/ha) was 0. The “Plant response rating, Sedge, Umbrella” value [30, 39] was 0, the “Plant response rating (scale of 0 to 100), Sedge, Umbrella” value ([30]; 62 g ai/ha) was 0 and the “Plant response rating (scale of 0 to 100), Sedge, Umbrella” value ([30]; 125 g ai/ha) was 0. The “Plant response rating (scale of 0 to 100), Sedge, Umbrella” value ([30]; 250 g ai/ha) was 0.
